Reference: patent US20060128792A1, “Deguelin as a chemopreventive agent for lung cancer” (priority 2002, published 2006)
pIC50: −log10 of the molar value. “And” between values parts separate entries of the source, which are not always exact repeats. Equal values may be shown once.

Tests used:
Assay type in all cases: cell-based
PI3K = PI3K assay (lipid kinase assay on immunoprecipitate of treated cells); conditions: 1799 cells, 10^−7 M deguelin, 1 day
Protocol: PI3K Assay. 1799 cells cultured in KSFM containing 10^−7 M deguelin for different time periods were lysed in lysis buffer. PI3K was immunoprecipitated from 500 μg of cellular protein using pan-anti-p85 antibody (Upstate Biotechnology, Waltham, Mass.), which coprecipitates the p110 catalytic subunit of PI3K, and subsequent lipid kinase assay was performed as described previously (Sibilia et al., 2000). Briefly, the mixture was incubated with gentle rocking at 4° C. for 12 h, 10 mg of protein A-sepharose (Amersham Pharmacia Biotech) were added, and the incubation was continued for another 2 h. The immunoprecipitates were washed, in tandem, three times with lysis buffer, twice with 0.1 M Tris/HCl, pH 7.5, containing 0.5 M LiCl, and 10 μM sodium vanadate, and twice with 10 mM Tris/HCl, pH 7.5, containing 100 MM NaCl, 10 μM sodium vanadate, and 1 mM EDTA. Adequate amounts of the washed antibody conjugates, in 10 μl, were added to 80 μl of 30 mM Hepes, pH 7.5, containing 125 μM ATP, 10 μCi of [α-^32P] ATP, and 6.25 mM MgCl2, and the reaction was initiated by adding 20 μg of bovine brain extract (Type 1; Sigma) suspended in 10 μl of 30 mM Hepes, pH 7.5. […] The autoradiograms were scanned by a Photodyne image system and quantified using the NIH Image program (version 1.59).

[1] = system: cell line not named (Table 1); assay: MTT assay, growth inhibition by deguelin; conditions: 3 days
H441 = assay: MTT assay, growth inhibition by deguelin or deguelin derivatives; conditions: 3 days
NSCLC cells = assay: MTT assay, growth inhibition of NSCLC cells by deguelin and deguelin derivatives (Table 2, FIG. 7); conditions: 72 h, depending on the cell line, 3 days
[2] = system: H1299 and squamous HBE cells; assay: Apoptosis by flow cytometry (FACS); conditions: 10^−7 M deguelin, by day 2 or day 3
Protocol: Apoptosis assay. Normal, premalignant, and malignant HBE cells were exposed to v various doses of deguelin for 3 days. […] Both adherent and floating cells were combined for the assessment of apoptosis using the APO-BRDU staining kit (Phoenix Flow Systems, San Diego, Calif.). Briefly, floating and attached cells dispersed with trypsin-EDTA were pelleted, washed, and fixed by 1% paraformaldehyde followed by 70% ethanol. The fixed cells were washed and incubated with DNA-labeling solution containing terminal deoxynucleotidyl transferase (TdT) reaction buffer, TdT enzyme, and bromodeoxyuridine triphosphate (Br-dUTP). Cells were rinsed, resuspended with fluorescein-PRB-I antibody solution, and analyzed by flow cytometry in the presence of PI/RNase solution. […] A dual display of DNA area (linear red fluorescence) and Br-dUTP incorporation (FITC-PRB-1) was used to determine the percentage of apoptotic cells.
The apoptotic effect of deguelin was further assessed in HBE cells. […] Apoptosis was analyzed by flow cytometry as described above. […] To confirm the apoptotic activity in these cells, bax and bcl-2 expression were analyzed by western blotting. […] Thus, it was determined that deguelin increases bax expression thereby inducing the apoptotic activity in lung cancer cells.

ERK1/2 (MAPK) = assay: ERK 1/2 kinase assay (MBP phosphorylation, immunoprecipitate of treated cells); conditions: 1799 cells, 10^−7 M deguelin
Protocol: ERK 1/2 Kinase assay. ERK1/2 activity was determined by analyzing MAPK-induced phosphorylation of myelin basic protein (MBP) as previously described (Lee et al., 2002). Briefly, 1799 cells cultured in KSFM containing 10^−7 M deguelin for different time periods were lysed in lysis buffer, and ERK-1 and -2 were immunoprecipitated from 100 μg of cell extracts with antibodies (1 μg) that recognize ERK-1 and -2 (Santa Cruz Biotechnology) by rotation at 4° C. for overnight. The total volume was adjusted to 0.5 ml with lysis buffer. Protein A sepharose beads (20 μl) (Amersham Pharmacia Biotech) were added and incubated at 4° C. for 2 hour. The beads were washed three times with lysis buffer and once with kinase buffer (20 MM Hepes [pH 7.5], 20 mM β-glycerol phosphate, 10 mM PNPP, 10 mM MgCl2, 1 mM dithiothreitol, 50 mM sodium vanadate). Kinase assays were performed by incubating the beads with 30 μl kinase buffer to which […], 5 μCi [γ^32P] ATP (2000 cpm/pmol), and 2 μg MBP (Cell Signaling Technology) were added. The kinase reaction was performed at 30° C. for 20 min. The samples were suspended in Laemmli buffer, boiled for 5 min, and the samples were analyzed by SDS-PAGE. The gel was dried and autoradiographed.

H661 = assay: MTT assay, growth inhibition by deguelin or deguelin derivatives; conditions: 3 days

Question: COc1cc2c(cc1OC)[C@@H]1C(=O)c3ccc4c(c3O[C@@H]1CO2)C=CC(C)(C)O4 [Deguelin] was tested. Which “PI3K activity (lipid kinase assay)” value (PI3K) did it give?
Answer: Its value is “decreased”.

Question: What about the Avg. % con ([1]; deguelin 10^−6M) of the same molecule?
Answer: The Avg. % con was 0.82 % con.

Question: And the “MTT value, mean of replicates (unheaded line)” value (“MTT value, mean of replicates” below) ([1]; deguelin 10^−6M)?
Answer: The value was 0.304.

Question: What about the “MTT value, replicate (unheaded line)” value ([1]; deguelin 10^−6M) of the same molecule?
Answer: The value was 0.306 (2×) and 0.299 and 0.305.

Question: And the Avg. % con ([1]; deguelin 10^−8M)?
Answer: Its Avg. % con is 0.78 % con.

Question: What about the “MTT value, mean of replicates” value ([1]; deguelin 10^−8M) of the same molecule?
Answer: The value was 0.2908.

Question: What about the “MTT value, replicate (unheaded line)” value ([1]; deguelin 10^−8M) of the same molecule?
Answer: The value was 0.288 and 0.291 and 0.283 and 0.301.

Question: What about the Avg. % con ([1]; deguelin 10^−10M) of the same molecule?
Answer: The Avg. % con was 0.90 % con.

Question: What about the “MTT value, mean of replicates” value ([1]; deguelin 10^−10M) of the same molecule?
Answer: Its value is 0.3348.

Question: And the “MTT value, replicate (unheaded line)” value ([1]; deguelin 10^−10M)?
Answer: Its value is 0.337 and 0.327 and 0.343 and 0.332.

Question: And the Avg. % con ([1]; deguelin 10^−12M)?
Answer: Its Avg. % con is 1.01 % con.

Question: What about the “MTT value, mean of replicates” value ([1]; deguelin 10^−12M) of the same molecule?
Answer: The value was 0.3768.

Question: What about the “MTT value, replicate (unheaded line)” value ([1]; deguelin 10^−12M) of the same molecule?
Answer: Its value is 0.392 and 0.386 and 0.367 and 0.362.

Question: And the Avg. % con (H441; deguelin 10^−6M)?
Answer: The Avg. % con was 0.82 % con.

Question: What about the “MTT value, mean of replicates” value (H441; deguelin 10^−6M) of the same molecule?
Answer: The value was 0.181.

Question: And the “MTT value, replicate (unheaded line)” value (H441; deguelin 10^−6M)?
Answer: The value was 0.18 (2×) and 0.183.

Question: And the Avg. % con (H441; deguelin 10^−8M)?
Answer: The Avg. % con was 0.94 % con.

Question: And the “MTT value, mean of replicates” value (H441; deguelin 10^−8M)?
Answer: The value was 0.207.

Question: And the “MTT value, replicate (unheaded line)” value (H441; deguelin 10^−8M)?
Answer: The value was 0.209 and 0.203 and 0.21.

Question: What about the Avg. % con (H441; deguelin 10^−10M) of the same molecule?
Answer: Its Avg. % con is 1.01 % con.

Question: What about the “MTT value, mean of replicates” value (H441; deguelin 10^−10M) of the same molecule?
Answer: Its value is 0.223.

Question: And the “MTT value, replicate (unheaded line)” value (H441; deguelin 10^−10M)?
Answer: The value was 0.21 and 0.231 and 0.229.

Question: And the Avg. % con (H441; deguelin 10^−12M)?
Answer: Its Avg. % con is 1.12 % con.

Question: What about the “MTT value, mean of replicates” value (H441; deguelin 10^−12M) of the same molecule?
Answer: Its value is 0.247.

Question: What about the “MTT value, replicate (unheaded line)” value (H441; deguelin 10^−12M) of the same molecule?
Answer: The value was 0.234 and 0.259 and 0.249.

Question: What about the pIC50 (NSCLC cells) of the same molecule?
Answer: The pIC50 was 6.00 to 7.00.

Question: And the “apoptosis (flow cytometry)” value [2]?
Answer: The value was ≥ 60%.

Question: And the MAPK activity (ERK1/2 (MAPK))?
Answer: Its MAPK activity is “not affected”.

Question: What about the Avg. % con (H661; deguelin 10^−6M) of the same molecule?
Answer: Its Avg. % con is 0.5756 % con.

Question: What about the “MTT value, mean of replicates” value (H661; deguelin 10^−6M) of the same molecule?
Answer: Its value is 0.0597.

Question: What about the “MTT value, replicate (unheaded line)” value (H661; deguelin 10^−6M) of the same molecule?
Answer: The value was 0.059 and 0.055 and 0.065.

Question: What about the Avg. % con (H661; deguelin 10^−8M) of the same molecule?
Answer: Its Avg. % con is 0.60 % con.

Question: And the “MTT value, mean of replicates” value (H661; deguelin 10^−8M)?
Answer: Its value is 0.063.

Question: What about the “MTT value, replicate (unheaded line)” value (H661; deguelin 10^−8M) of the same molecule?
Answer: Its value is 0.062 and 0.056 and 0.07.

Question: What about the Avg. % con (H661; deguelin 10^−10M) of the same molecule?
Answer: The Avg. % con was 0.80 % con.

Question: And the “MTT value, mean of replicates” value (H661; deguelin 10^−10M)?
Answer: Its value is 0.083.

Question: And the “MTT value, replicate (unheaded line)” value (H661; deguelin 10^−10M)?
Answer: The value was 0.087 and 0.093 and 0.07.

Question: What about the Avg. % con (H661; deguelin 10^−12M) of the same molecule?
Answer: Its Avg. % con is 0.86 % con.

Question: And the “MTT value, mean of replicates” value (H661; deguelin 10^−12M)?
Answer: The value was 0.089.

Question: What about the “MTT value, replicate (unheaded line)” value (H661; deguelin 10^−12M) of the same molecule?
Answer: Its value is 0.09 and 0.084 and 0.094.
